Values quoted from earlier work as cited in patent publication US8314091B2, “N-benzyl,N'-arylcarbonylpiperazine derivatives” (MSD OSS B.V., priority 2007, dated 2012).

Key:
[1] = system: vascular smooth muscle cell proliferation and neointima formation; conditions: following balloon injury, in vitro and in vivo
[2] = system: tumours in an animal model of prostate cancer
[3] = system: β-amyloid; conditions: in vivo

In the case of O=S(=O)(c1ccccc1)N(CC(F)(F)F)c1ccc(C(O)(C(F)(F)F)C(F)(F)F)cc1 [Example T0901317], the “effect on vascular smooth muscle cell proliferation and neointima formation” value [1] is listed as “inhibit vascular smooth muscle cell proliferation and neointima formation”, the “effect on progression of tumours” value [2] is listed as “delayed progression of tumours” and the “deposition of β-amyloid” value [3] is listed as “lower deposition of β-amyloid”. The memory [3] was “improve memory”.
